According to patent US20130053243A1, “PLANTS HAVING INCREASED TOLERANCE TO HERBICIDES” (BASF SE, priority 2010, published 2013):

What was measured:
[1] = tested on: transgenic soybean plants, event AV3653 (AtHPPD); assay: Greenhouse spray test, transgenic soybean T0 cuttings; assay type: in vivo, Glycine max; conditions: two weeks after treatment, scale 0 (no injury) to 9 (complete death)
Procedure: (§1) Transgenic plants expressing heterologous HPPD or HST enzymes are tested for tolerance against coumarone-derivative herbicides in greenhouse experiments.
(§2) For post emergence treatment, the test plants are first grown to a height of 3 to 15 cm, depending on the plant habit, and only then treated with the herbicides. For this purpose, the test plants are either sown directly and grown in the same containers, or they are first grown separately and transplanted into the test containers a few days prior to treatment.
(§3) For testing of T0 plants, cuttings can be used. In the case of soybean plants, an optimal shoot for cutting is about 7.5 to 10 cm tall, with at least two nodes present. Each cutting is taken from the original transformant (mother plant) and dipped into rooting hormone powder (indole-3-butyric acid, IBA). The cutting is then placed in oasis wedges inside a bio-dome. Wild type cuttings are also taken simultaneously to serve as controls. The cuttings are kept in the bio-dome for 5-7 days and then transplanted to pots and then acclimated in the growth chamber for two more days. Subsequently, the cuttings are transferred to the greenhouse, acclimated for approximately 4 days, and then subjected to spray tests as indicated. Depending on the species, the plants are kept at 10-25° C. or 20-35° C. The test period extends over 3 weeks. During this time, the plants are tended and their response to the individual treatments is evaluated. Herbicide injury evaluations are taken at 2 and 3 weeks after treatment. Plant injury is rated on a scale of 0 to 9, 0 being no injury and 9 being complete death.

[2] = tested on: transgenic soybean plants, event LG4564; assay: as above; assay type: in vivo, Glycine max; conditions: event LG4564, CrHPPD2 (head unclear), two weeks after treatment, scale 0 (no injury) to 9 (complete death)
Procedure: as §1, §2, §3

[3] = molecular target: T1, Arabidopsis HPPD (Arabidopsis thaliana, UniProt P93836); assay: HPPD activity assay (homogentisic acid by HPLC), wildtype enzyme; assay type: biochemical; conditions: Table 11, calculated from IC50 with Cheng-Prusoff equation, read-out: dissociation constant Ki
T1 construct: His6 (N); made in house; host or cells: E. coli BL21 (DE3)
T1 sequence (P93836 1-445): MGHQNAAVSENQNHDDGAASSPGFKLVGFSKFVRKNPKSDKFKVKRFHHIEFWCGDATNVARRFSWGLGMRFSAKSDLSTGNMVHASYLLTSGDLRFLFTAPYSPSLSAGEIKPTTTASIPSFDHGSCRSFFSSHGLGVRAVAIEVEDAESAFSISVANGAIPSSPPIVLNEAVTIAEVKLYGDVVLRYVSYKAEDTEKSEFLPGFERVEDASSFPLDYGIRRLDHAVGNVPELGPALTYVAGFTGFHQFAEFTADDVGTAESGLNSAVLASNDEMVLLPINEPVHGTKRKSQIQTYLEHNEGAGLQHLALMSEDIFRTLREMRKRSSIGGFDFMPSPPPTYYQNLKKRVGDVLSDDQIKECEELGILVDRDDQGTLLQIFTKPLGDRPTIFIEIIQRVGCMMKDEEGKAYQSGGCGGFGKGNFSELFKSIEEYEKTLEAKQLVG
Procedure: HPPD produces homogentisic acid and CO2 from 4-hydroxyphenylpyruvate (4-HPP) and O2. The activity assay for HPPD is based on the analysis of homogentisic acid by reversed phase HPLC.
The assay mixture can contain 150 mM potassium phosphate buffer pH 7.0, 50 mM L-ascorbic acid, 1 μM FeSO4 and 7 μg of purified enzyme in a total volume of 1 ml.
Inhibitors are dissolved in DMSO (dimethylsulfoxide) to a concentration of 20 mM or 0.5 mM, respectively. From this stock solution serial five-fold dilutions are prepared in DMSO, which are used in the assay. The respective inhibitor solution accounts for 1% of the assay volume. Thus, final inhibitor concentrations range from 200 μM to 2.5 nM or from 5 μM to 63 pM, respectively.
After a preincubation of 30 min the reaction is started by adding 4-HPP to a final concentration of 0.1 mM. The reaction is allowed to proceed for 120 min at room temperature. The reaction is stopped by addition of 100 μl of 4.5 M phosphoric acid.
The sample is extracted on an Oasis® HLB cartridge 3 cc/60 mg (Waters) that was preequilibrated with 63 mM phosphoric acid. L-ascorbic acid is washed out with 3 ml of 63 mM phosphoric acid. […]
10 μl of the eluate is analyzed by reversed phase HPLC on a Symmetry® C18 column (particle size 3.5 μm, dimensions 4.6×100 mm; Waters) using 5 mM H3PO4/15% ethanol (w/w) as an eluent.
Homogentisic acid is detected electrochemically and quantified by measuring peak areas (Empower software; Waters).
Activities are normalized by setting the uninhibited enzyme activity to 100%. IC50 values are calculated using non-linear regression. […]
5 μl of the cleared sample is analyzed on an Atlantis T3 column (particle size 3 μm, dimensions 3×50 mm; Waters) by isocratic elution using 90% 10 mM NaH2PO4 pH 2.2, 10% methanol (v/v).
HGA is detected electrochemically at 750 mV (mode: DC; polarity: positive) and quantified by integrating peak areas (Empower software; Waters).
Inhibitors are dissolved in DMSO (dimethylsulfoxide) to a concentration of 0.5 mM. […] IC50 values are calculated using non-linear regression. […]

Row | SMILES | Injury evaluation (plant injury rating) ([1]; 50 g/ha) | Injury evaluation (plant injury rating) ([1]; 100 g/ha) | Injury evaluation (plant injury rating) ([1]; 200 g/ha) | Injury evaluation (plant injury rating) ([2]; 50 g/ha) | Injury evaluation (plant injury rating) ([2]; 100 g/ha) | Injury evaluation (plant injury rating) ([2]; 200 g/ha) | Ki [3] [nM] | Injury evaluation (plant injury rating) ([1]; 6.25 g/ha) | Injury evaluation (plant injury rating) ([1]; 12.5 g/ha) | Injury evaluation (plant injury rating) ([2]; 6.25 g/ha) | Injury evaluation (plant injury rating) ([2]; 12.5 g/ha)
1 | CC1=NOC(c2c(Cl)ccc(C3=C(O)c4ncccc4N(CC(F)F)S3(=O)=O)c2Cl)C1 (stereo not drawn) [Inhibitor 1, 3-[2,4-dichloro-3-(3-methyl-4,5-dihydroisoxazol-5-yl)phenyl]-1-(2,2-difluoroethyl)-2,2-dioxo-pyrido[3,2-c]thiazin-4-ol] | 3 | 3 | 3 | 3 | 3 | 4 | 3 |  |  |  | 
2 | Cc1c(C(=O)c2cnn(C)c2O)ccc(S(C)(=O)=O)c1C1=NOCC1 [Topramezone, reference compound] |  |  |  |  |  |  | 4 | 2 | 3 | 3 | 4
